From EP4803083A1, “USE OF PYRROLOTRIAZINE COMPOUND IN PREPARATION OF DRUG FOR PREVENTING AND/OR TREATING FIBROSIS OR RELATED DISEASE THEREOF” (Jumbo Drug Bank Co., Ltd., priority 2023, dated 2025) come the findings set out here.

Series [1] concerns Liver spheroids. The series can be described thus: In vitro 3D liver NASH model: TG detection. The note with it: 60 nM; Day 10; compared with the NASH group; p<0.05. Format: cell-based, human. The protocol:
(§1) Four types of human primary cells were used for modeling, including human primary hepatocytes (PHH), human primary liver sinusoidal endothelial cells (LSEC), human primary hepatic stellate cells (HSC), and human primary Kupffer cells (KC). The total number of cells in each model was 3000.
(§2) The cell connector NAC-Linker A was mixed with hepatocytes and incubated at room temperature for 30 minutes so that NAC-Linker A was fixed on the cell membrane surface. At the same time, the cell connector NAC-Linker B was mixed with the mixture of intrahepatic non-parenchymal cells and incubated at room temperature for 30 minutes so that NAC-Linker B was fixed on the cell membrane surface; (2) after incubation, the hepatocytes carrying NAC-Linker A and the intrahepatic non-parenchymal cells carrying NAC-Linker B were mixed evenly, and 20-30 µl droplets were prepared on the lid of a culture plate using a pipette. PBS solution and liver physiological culture medium (Puheng Biomedicine (Shanghai) Co., Ltd., liver physiological culture medium (human), catalog No. M0001) were added to the wells of the culture plate. The prepared culture plate lid was inverted and placed onto the culture plate to form hanging drops. The culture plate with hanging drops was placed upside down in a 37°C incubator for 12-24 hours. […]

The test system of series [2] is Liver spheroids. The series can be described thus: In vitro 3D liver NASH model: Sirius Red staining. Format: cell-based, human. The note with it: for Sirius Red staining: fibrosis area in the liver spheroids: compared with the NASH group. The protocol:
as §1
(§3) The cell connector NAC-Linker A was mixed with hepatocytes and incubated at room temperature for 30 minutes so that NAC-Linker A was fixed on the cell membrane surface. At the same time, the cell connector NAC-Linker B was mixed with the mixture of intrahepatic non-parenchymal cells and incubated at room temperature for 30 minutes so that NAC-Linker B was fixed on the cell membrane surface; (2) after incubation, the hepatocytes carrying NAC-Linker A and the intrahepatic non-parenchymal cells carrying NAC-Linker B were mixed evenly, and 20-30 µl droplets were prepared on the lid of a culture plate using a pipette. PBS solution and liver physiological culture medium (Puheng Biomedicine (Shanghai) Co., Ltd., liver physiological culture medium (human), catalog No. M0001) were added to the wells of the culture plate. The prepared culture plate lid was inverted and placed onto the culture plate to form hanging drops. The culture plate with hanging drops was placed upside down in a 37°C incubator for 12-24 hours. Under the curvature of the lower surface of the hanging drops and gravity, complementary DNA pairing in the NAC-Linker formed connections to generate a 3D liver organoid structure.
(§4) After successful modeling on Day 0, the samples were divided into 5 groups according to different treatments, with 9 samples in each group. […]
Using ImageJ software, the fibrosis area on the slides after Sirius Red staining was quantified, and the ratio of the fibrosis area to the total area of each slide was calculated (Figure 7).

The subject of series [3] is bleomycin-induced mouse pulmonary fibrosis model. The series can be described thus: Bleomycin-induced pulmonary fibrosis model: lung inflammation scoring (HE staining, Szapiel Score). It counts as in vivo, C57BL/6 mice. The note with it: high-dose group (50 mg/kg); endpoint 28 days; compared with the vehicle treatment group; p value<0.05. Here is the method: (§5) Experimental preparation: C57BL/6 mice, 8-10 weeks old, female, body weight approximately 18-22 g. Bleomycin. 1% sodium pentobarbital, sterile normal saline, insulin syringe.
(§6) Drug: p-toluenesulfonate salt of Compound 12 (10 mg/mL). The specific drug preparation method was as follows: 282.87 mg of the p-toluenesulfonate salt powder of Compound 12 was weighed and mixed with 1.050 mL of DMSO solution (preheated to 45°C). The mixture was placed in an ultrasonic water bath until completely dissolved. Subsequently, 19.95 mL of mixed solvent (comprising 1.995 mL of Solutol, 1.995 g of hydroxypropyl-β-cyclodextrin, and 15.96 mL water ) was added. The resulting mixture was sonicated again until completely dissolved to obtain a working solution with a concentration of 10 mg/mL. 1. After the mice begin to adapt to the environment, the experiment is started. The experimental animals are divided into five groups: normal control group, model group (Bleomycin group), low-dose treatment group (25 mg/kg), high-dose treatment group (50 mg/kg), and vehicle treatment group. […]
(§7) 5. […] According to the time point, the mice were euthanized and samples were collected for subsequent experiments; the day of modeling is recorded as day 1. […]

The test system is the same in series [4]. The series can be described thus: Bleomycin-induced pulmonary fibrosis model: lung fibrosis grading score (Masson staining, Ashcroft Score). It counts as in vivo, C57BL/6 mice. The note with it: endpoint 28 days, compared with the vehicle-treated group, p value <0.05. Here is the method: as §5, §6, §7
Another series deals with COL1 and α-SMA. The series can be described thus: In vitro 3D liver NASH model: COL1 and α-SMA immunofluorescence staining. The note with it: 10 nM, 30 nM and 60 nM groups. It counts as cell-based, human. Here is the method: as §1
as §2, with “plate.” for “plate. The prepared culture plate lid was inverted and placed onto the culture plate to form hanging drops. The culture plate with hanging drops was placed upside down in a 37°C incubator for 12-24 hours.”
Liver spheroids were paraffin-embedded and sectioned, subjected to immunofluorescence staining, mounted, and photographed under a fluorescence microscope, and the results are shown in Figure 5

A further series deals with IL-6. The series can be described thus: In vitro 3D liver NASH model: cytokine detection (IL-6). It counts as cell-based, human. The note with it: 60 nM; culture medium supernatant; compared with the NASH group; significant difference p<0.05. The protocol: as §1
as §2, with “drops.” for “drops. The culture plate with hanging drops was placed upside down in a 37°C incubator for 12-24 hours.”
The culture medium supernatant was collected and tested using an IL-6 detection kit according to the manufacturer's instructions, with measurement performed using a microplate reader.

Series [5] relates to Liver spheroids. The series can be described thus: In vitro 3D liver NASH model: H&E staining. The note with it: compared with the NASH group. It counts as cell-based, human. The protocol: as §1, §3, §4
Using ImageJ software, the steatotic area on the slides after H&E staining was quantified, and the ratio of the steatotic area to the total area of each slide was calculated (results are shown in Figure 6).

SMILES strings stand for the structures.

In the case of `Cc1cc(Nc2ncnn3cc(OCCN4CCC(F)(F)C4)c(C)c23)c(=O)n2c1C(=O)NC21CCCC1` [Compound 12 p-toluenesulfonate], in the series with Liver spheroids [1], the TG level result is “significant difference”. In addition, the “Sirius Red staining: degree of liver fibrosis” value in the series on Liver spheroids [2] (10 nM, compared with the normal control group (so in the source)) is “trend of improvement”. For the same molecule, the “Sirius Red staining: fibrosis area in the liver spheroids” value in the series on Liver spheroids [2] (30 nM) and with Liver spheroids [2] (60 nM) was “significant differences” in each case. Moreover, the “Szapiel Score of lung tissue fibrosis” value in series [3] is listed as “significantly lower score”. For the same molecule, the “Ashcroft Scores of lung tissue fibrosis” value in series [4] (high-dose group (50 mg/kg)) and in series [4] (low-dose group (25 mg/kg)) was “significantly lower scores” each time. Also, the “COL1 and α-SMA immunofluorescence staining” value in the series on COL1 and α-SMA was “therapeutic effect on liver fibrosis and exhibits dose dependence”. Moreover, the “inflammatory cytokine level (IL-6)” value in the series on IL-6 was “improved”. For the same molecule, the “H&E staining: hepatocyte steatosis and ballooning degeneration” value was “improvement in hepatocyte steatosis and ballooning degeneration” in the series on Liver spheroids [5] (10 nM); “significant histological improvement” in the series on Liver spheroids [5] (30 nM); “significant histological improvement” in the series on Liver spheroids [5] (60 nM).
